Results from patent US20070078125A1, “Arylamine mch r1 antagonists” (GLAXO GROUP LIMITED, priority 2003, published 2007).

Experiments:
hERG potassium channel = molecular target: T1, hERG potassium channel (Homo sapiens, UniProt Q12809); assay: hERG whole cell patch clamp, tail current inhibition in HEK-293 cells; assay type: cell-based; details: tail current at −40 mV, room temperature; for inhibition at 3 µM: human, pH 7.4, 3 μM, read-out: hERG Inhibition, % inhib. @ 3 μM
T1 construct: expressed in transfected cells; host or cells: HEK-293 cells, BacMam viral expression system
Method: The comparison was carried out as follows. The hERG potassium channels were transiently expressed in HEK-293 cells using the Bacmam viral expression system (Kost et al, 2000: Pfohl et al, 2001). The HEK-293 cells were maintained in cell media comprised of D-MEM/F12, 10% fetal bovine serum, penicillin G sodium 100 units/mL, and streptomycin sulfate 100 μg/mL. Cells were grown to confluency in flasks and were rinsed once with PBS prior to passage. The flasks were incubated with VERSENE (EDTA) 1:5000 for 5 minutes at 37° C. to detach the cells from the flasks. Cells used in electrophysiology experiments were plated on glass coverslips and transfected 24 to 72 hours prior to use.
hERG channels were studied using the whole cell mode of the patch clamp technique (Hamill et al., 1981). The pipette solution contained 145 mM K+Aspartate, 11 mM EGTA, 5 mM NaCl, 5 mM MgATP, 5 mM HEPES, pH 7.4, and the bath solution contained 145 mM NaCl, 4 mM KCl, 2 mM CaCl2, 1 mM MgCl2, 10 mM HEPES, 10 mM d-glucose pH 7.4. To measure drug effects, the cells were held at −80 mV, then stepped to +20 mV for 400 ms followed by a second pulse to −40 mV so that the outward tail current characteristic of hERG could be measured. […] This pulse protocol was repeated at ten-second intervals during the superfusion of the test article diluted in the bath solution. The inhibition of hERG was determined by measuring the peak amplitude of the tail currents at −40 mV before and after compound application. The half-maximal inhibitory concentration (IC50) was determined from a curve fit of Hill equation to the data points. […] All experiments were conducted at room temperature (approximately 25° C.).

MCH R1 = molecular target: T2, MCH R1 (Homo sapiens, UniProt Q99705); assay: functional antagonist assay of MCH R1 (elkgal4-luc+ reporter gene, CHO cells, inhibition of MCH EC80 response); assay type: cell-based; details: MCH1R-elkgal4-luc+ CHO cells, read-out: MCH R1 pIC50 (converted)
T2 construct: expressed in transfected cells; host or cells: CHO cells stably expressing elkgal4-luc+ reporter gene (CHO-K1, ATCC)
Excerpt: The activity of the compounds used in this invention may be assessed in a functional assay of MCH R1 as follows:
Black, 96-well, tissue culture-treated plates (#3904) were obtained from Corning Costar, (Cambridge, Mass.), LucPlus™ Luciferase Reporter Gene Assay Kit (# 6016969) was from Packard (Meriden, Conn.), plate seals (#097-05-00006) were from Beckman/Sagian (Fullerton, Calif.). DMEM/F12 medium (#11039-021), fetal bovine serum (# 16140-071), L-glutamine (#25030-081), 0.05% trypsin (# 25300-054), G418 (#10131-035) and dPBS (#4190-144) were obtained from Gibco BRL (Gaithersburg, Md.). […]
CHO cells, stably expressing an elkgal4-luc^+ reporter gene (host) were transfected by electroporation with the human melanin-concentrating hormone one receptor. […] Plates were sealed and subjected to dark adaptation at room temperature for 10 minutes before luciferase activity was quantitated on a TopCount™ microplate scintillation counter (Packard) using 3 seconds/well count time. The ability of the antagonist to inhibit the MCH EC80 response was quantified by non-linear regression analysis using a curve-fitting program based in Microsoft ExCel. Specificity of the MCH R1 response was determined using the same protocol by measuring the ability of said antagonists to inhibit an EC80 thrombin response (endogenous) in the host cells.

T1 sequence (Q12809 whole entry): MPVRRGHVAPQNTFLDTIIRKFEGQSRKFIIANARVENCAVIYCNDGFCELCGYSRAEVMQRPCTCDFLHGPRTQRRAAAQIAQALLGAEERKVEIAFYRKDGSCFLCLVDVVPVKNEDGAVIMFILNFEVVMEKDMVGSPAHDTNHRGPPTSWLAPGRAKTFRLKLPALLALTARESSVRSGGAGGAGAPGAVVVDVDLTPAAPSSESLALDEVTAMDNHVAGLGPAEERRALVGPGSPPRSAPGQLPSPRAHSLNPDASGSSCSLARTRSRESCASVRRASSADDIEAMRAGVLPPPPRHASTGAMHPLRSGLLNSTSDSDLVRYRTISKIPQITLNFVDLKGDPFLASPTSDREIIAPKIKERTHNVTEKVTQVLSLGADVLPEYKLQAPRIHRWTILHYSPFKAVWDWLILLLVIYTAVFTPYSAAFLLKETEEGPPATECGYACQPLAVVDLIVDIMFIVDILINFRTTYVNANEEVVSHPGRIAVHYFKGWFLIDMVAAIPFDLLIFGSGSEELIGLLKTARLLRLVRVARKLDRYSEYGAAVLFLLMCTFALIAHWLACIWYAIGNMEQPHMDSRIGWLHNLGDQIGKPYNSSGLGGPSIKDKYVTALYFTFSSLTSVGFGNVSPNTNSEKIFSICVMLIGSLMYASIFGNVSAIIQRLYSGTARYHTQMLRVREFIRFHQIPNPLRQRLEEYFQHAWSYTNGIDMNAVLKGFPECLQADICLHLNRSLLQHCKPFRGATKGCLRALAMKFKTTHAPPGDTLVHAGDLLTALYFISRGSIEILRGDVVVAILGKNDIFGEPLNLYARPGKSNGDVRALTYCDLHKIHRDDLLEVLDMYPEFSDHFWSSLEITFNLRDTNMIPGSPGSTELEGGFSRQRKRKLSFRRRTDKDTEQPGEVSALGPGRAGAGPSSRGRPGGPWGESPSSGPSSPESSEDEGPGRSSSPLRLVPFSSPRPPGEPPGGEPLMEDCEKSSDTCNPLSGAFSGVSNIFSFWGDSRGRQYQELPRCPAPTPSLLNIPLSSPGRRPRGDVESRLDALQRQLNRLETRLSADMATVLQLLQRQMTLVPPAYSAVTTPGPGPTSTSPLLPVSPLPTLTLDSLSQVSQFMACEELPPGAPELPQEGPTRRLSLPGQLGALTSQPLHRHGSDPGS
T2 sequence (Q99705 whole entry, the tested form may be a part): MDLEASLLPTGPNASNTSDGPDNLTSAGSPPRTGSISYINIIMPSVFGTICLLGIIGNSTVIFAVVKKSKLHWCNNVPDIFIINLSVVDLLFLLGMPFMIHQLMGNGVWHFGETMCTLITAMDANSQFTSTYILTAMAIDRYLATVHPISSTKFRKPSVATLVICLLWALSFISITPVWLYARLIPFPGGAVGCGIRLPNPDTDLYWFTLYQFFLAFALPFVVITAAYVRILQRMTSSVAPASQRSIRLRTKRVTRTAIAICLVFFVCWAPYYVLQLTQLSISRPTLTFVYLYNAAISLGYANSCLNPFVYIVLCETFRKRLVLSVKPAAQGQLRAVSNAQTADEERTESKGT

| IC50 (MCH R1) | Structure (SMILES) | inhibition at 3 µM (hERG potassium channel) | IC50 (hERG potassium channel) |
| --- | --- | --- | --- |
|  | COc1cc(-n2cnc3cc(-c4ccc(Cl)cc4)sc3c2=O)ccc1OCCN1CC[C@H](O)C1 [Comparison Example 1] | 62% | 2000 nM |
|  | COc1cc(-n2cnc3cc(-c4ccc(Cl)cc4)sc3c2=O)ccc1OCCN1CC[C@@H](O)C1 [Comparison Example 2] | 90% |  |
|  | COc1cc(-n2cnc3cc(-c4ccc(Cl)cc4)sc3c2=O)ccc1OCCCN1CC[C@@H](O)C1 [Comparison Example 3] | 84% |  |
| 2.51 nM | COc1cc(-n2cnc3cc(-c4ccc(Cl)cc4)sc3c2=O)ccc1N1CC[C@@H](O)C1 [Example 1, 6-(4-chlorophenyl)-3-{4-[(3R)-3-hydroxypyrrolidin-1-yl]-3-methoxyphenyl}thieno[3,2-d]pyrimidin-4(3H)-one] |  |  |
| 2 nM | COc1cc(-n2cnc3cc(-c4ccc(Cl)cc4)sc3c2=O)ccc1N1CC[C@H](O)C1 [Example 4, 6-(4-chlorophenyl)-3-{4-[(3S)-3-hydroxypyrrolidin-1-yl]-3-methoxyphenyl}thieno[3,2-d]pyrimidin-4(3H)-one] |  |  |
